Data reported in patent US7498161B2 (priority 2003, dated 2009).

Legend:
C8161 cells = format: cell-based, human; conditions: 50 μM CB1954 alone
A2780 xenograft = experiment: Scheduling experiment: virus with or without CB1954, tumour volume in A2780 xenografts; format: in vivo, athymic nude mice; conditions: CB1954 alone, no virus, 80 mg/kg intra-peritoneal
Method: The inventors proceeded to investigate two doses of the virus in combination with CB1954. The doses selected were 10^5 PFU and 10^6 PFU. Both these doses caused some tumour growth delay in earlier experiments.
The prodrug is given as an 80 mg/kg intra-peritoneal injection, after dissolving the powdered form in 10% acetone and then making up the volume with peanut oil.
Mice were randomized into treatment groups (treatment regimes shown in Table 2) of 3 animals when tumour diameters were approximately 5 mm (tumour volume […]).
(§1) The treatment groups were administered with a single direct intratumoural injection of the virus and dose determined for that group. The virus was diluted PBS+10% serum. ‘No virus’ control groups received an intratumoural injection of 100 μl of PBS+10% serum. This day was designated as Experimental Day 0.
(§2) Injections of CB1954 were given to the appropriate groups at days 2, 10 and 15. A dose of 80 mg/kg—the equivalent of approx. 2 mg per mouse—was given. The powdered form of the CB1954 drug (from Sigma) was dissolved in acetone to 10% of the final volume (10 μl per 2 mg). The volume was then made up to 2 mg CB1954 in 100 μl using peanut oil. A syringe was used to mix the drug as peanut oil is thick and viscous. The drug was made up fresh every time.
The appropriate groups were then injected intra-peritoneal with this solution. […]

[1] = Scheduling experiment: tolerability of the injections (weight, behaviour); format: in vivo, athymic nude mice; conditions: 80 mg/kg intra-peritoneal in 10% acetone/peanut oil
Method: FIG. 26. Weight (as a measurement of health) in athymic nude mice with A2780 xenograft treated with either HSV 1790, HSV 1716, CB 1954 or a combination of them.
as §1
Some tumours bleed slightly after injection but not to a great degree. […] In all the tumours that bleed slightly, the following day the healing process had begun and within 3-5 days there was little evidence of any puncture wound on any tumour.
as §2
The appropriate groups were then injected intra-peritoneal with this solution. Control groups which were not receiving drug were injected intra-peritoneal with a 100 μl solution of 10% acetone in peanut oil.

NC(=O)c1cc(N2CC2)c([N+](=O)[O-])cc1[N+](=O)[O-] [CB1954, 5-aziridin-1-yl-2,4-dinitrobenzamide]
effect on cells (C8161 cells): no effect
effect on tumour growth (A2780 xenograft): little effect on tumour growth
behaviour after injection [1]: slightly lethargic for a short period after the injection
body weight [1]: did not lose any body weight
swelling or irritation at site of injection [1]: No swelling or irritation at the site of injection
